Reference: US7005447B2, “Food product comprising hydroxymatairesinol” (Hormos Nutraceutical Oy Ltd., priority 1999, dated 2006)

Legend:
[1] = system: low density lipoprotein (LDL) oxidation; experiment: Inhibition of LDL oxidation (CuCl2-induced, absorbance at 234 nm); format: biochemical; conditions: CuCl2, 3 hrs at +37° C.; read-out: Inhibition of LDL oxidation, IC-50
Procedure: Inhibition of LDL oxidation was estimated as described by Ahotupa et al, 1996. Shortly: LDL was isolated by precipitation with buffered heparin. After resuspendation in phosphate buffer, 20 mM CuCl2 was added and the mixture was incubated for 3 hrs at +37° C. After this, LDL lipids were extracted with chloroform-methanol, dried under nitrogen, redissolved in cyclohexane and analyzed spectrophotometrically at 234 nm. The intensity of absorbance is indicative of LDL oxidation. To test the ability of different compounds to prevent LDL oxidation, the compounds were added to the incubation mixture prior addition of CuCl2. Possible interference of test compounds with the assay procedure was excluded by measuring the absorption at 234 nm before and after the incubation period.

[2] = system: uterine growth of immature rats; experiment: Immature rat uterotropic test; format: in vivo; conditions: 7 days treatment, FIG. 3
Procedure: The estrogenicity HMR was evaluated by the uterotropic assay in immature rats which was performed as described earlier (Jordan et al. 1977), with the exception of treatment time which was 7 days instead of 3 days in the reference study. The treatment time was longer because of the expected weak estrogenicity of the test compound. The treatment of immature rats with an aromatase inhibitor (MPV-2213 ad), which prevents biosynthesis of estradiol, was used as a methodological control for non-estrogen-stimulated uterus.

MCF-7 cells = experiment: Estrogenic and antiestrogenic activity in MCF-7 cell proliferation assay; format: cell-based, human; set-up: Estrogenic activity, cell proliferation: dose or concentration left out as unconfirmed; conditions: 5 to 7 days, FIG. 2
Procedure: The MCF-7 cell line (human breast cancer cells) stock cultures were grown in phenol red free RPMI medium supplemented with 5% FCS, 100 U/ml penicillin and 100 μg/ml streptomycin, 10 μg/ml insulin and 1 nM 17β-estradiol in T-75 cell culture bottles. The medium was replaced with fresh ones three times per week. The stock cultures were harvested by trypsinization and suspended in 10 ml phenol red free versene solution and cenitifuged for 5 min 800 rpm. The cell pellet was carefully resuspended into RPMI medium supplemented with 5% dextran charcoal stripped FCS (dcFCS) and seeded on 6 well plates 50 000 cells/3.0 ml medium/well. On the second day of culture the medium was changed and test compounds were added. To test the estrogenicity of the lignan compounds, they were diluted in ethanol and added to cell cultures in final concentration of […]. In each proliferation assay 1.0 nM 17β-estradiol solution in ethanol was used as a positive control for estrogenic response. Equal amounts of ethanol were added to control wells. To test the antiestrogenicity both 17β-estradiol and lignan solutions were added to cell cultures. The cells were cultured for 5 to 7 days in the presence of test compounds, and the medium was changed every second day. Cell proliferation was quantified by counting the released nuclei with Coulter counter.

[3] = Superoxide anion scavenging (xanthine-xanthine oxidase system, chemiluminescence); format: biochemical; conditions: read-out: Superoxide anion scavenging, IC-50
Procedure: Superoxide anion scavenging method was based on the superoxide anion produced in controlled conditions by xanthine-xanthine oxidase system and detection of the generated reactive oxygen species by luminometer (Ahotupa et al., 1997). The ability of test compounds to decrease the chemiluminescence was evaluated. IC-50 concentration (concentration which prevented the chemiluminescence by 50%) was calculated.

[4] = Analysis of metabolites from rat urine after different doses of HMR (GC-MS); format: in vivo; conditions: 24 hour urine
Procedure: Ten Sprague—Dawley male rats (age 4 month) were used to study the metabolism of HMR in vivo. Animals were housed in pairs with 12 h light:dark cycle and had free access to water and soy-free basal diet (SDS, Whitham Essex, England) during the metabolism study.
Rats were cavaged with HMR dissolved in 10% ethanol in PEG in doses 3, 15, 25 and 50 mg/kg body weight once a day for two days. After second cavaging the 24 hour urine was collected in metabolic cages in collection jars containing 120 μl 0.56 M ascorbic acid and 120 μl 0.15 M Na-azide as preservatives. The centrifuged urine volumes were measured and stored in −20° C. For pretreatment 750 μl 0.2 M acetate buffer (pH 4.0±0.1) was added to 3.0 ml thawed urine aliquots. Sep-Pak C18 columns (100 mg silica based resin/column) were used for urine extractions. Columns were preconditioned with 3.0 ml H2O, 3.0 ml methanol and 3.0 ml acetate buffer. After urine had filtered through the column and washed with 3.0 ml of acetate buffer polyphenolics were eluted with 3.0 ml methanol. The eluate was evaporated to dryness under nitrogen in +45° C. water bath and dryed residues were redissolved in 3.0 ml of 0.2 M acetate buffer. 30 μl Helix pomatia enzyme mix was added and the solutions were incubated in +37° C. to hydrolyze both glucuronides and sulfates. 300 μl of flavone stock solution (100 μg/ml in EtOH) was added into hydrolyzed samples. The samples were extracted in C-18 columns and evaporated to dryness as described above and stored in −20° C. until analyzed with GC-MS.
The evaporated urine samples were dissolved in pyridine, and silylated by adding BSTFA:TMCS (10:1) silylation reagent. The GC-MS analyses of the silylated samples were performed with an HP 6890-5973 GC-MS instrument. The GC column was an HP-1 crosslinked methyl polysiloxane column (15 m×0.25 mm i.d., 0.25 μm film thickness). Helium was used as carrier gas at a flow of 1 ml/min. […] The quantitative calculations were based on uncorrected peak areas of target components relative to the internal standard.

IC50 [1]: 2 µM
IC50 [3]: 5.6 µM
Main excreting metabolite in urine ([4]; male rats, 3, 15, 25 and 50 mg/kg once a day for two days, FIG. 5): enterolactone
Relation between doses of HMR and amounts of urinary enterolactone ([4]; male rats, 3 to 50 mg/kg): linear correlation
Unmetabolized HMR and other metabolites (enterodiol and 7-hydroxyenterolactone) found in urine ([4]; male rats, unchanged when daily dose increased): Only minute amounts
Structure (SMILES): COc1cc(CC2C(=O)OCC2C(O)c2ccc(O)c(OC)c2)ccc1O (stereo not drawn) [HMR, hydroxymatairesinol]
Antiestrogenic effect (reduction of uterine weight gain) [2]: no antiestrogenic effect
Estrogenic effect on uterine weight gain [2]: no significant estrogenic effect
Estrogenic activity, cell proliferation (MCF-7 cells; MCF-7, lignan alone): very weak, not statistically significant
Antiestrogenic activity, cell proliferation (MCF-7 cells; MCF-7, lignan together with 17β-estradiol): very weak, not statistically significant
